Experiments:
human plasma = experiment: Presaturation equilibrium dialysis, fraction unbound in human plasma; format: in vitro ADME; set-up: fraction unbound at 18 h: dose or concentration left out as unconfirmed; settings: 5 μM PFAS, 18 h, 37 °C, value (CV)
Description: (§1) Each PFAS:matrix combination was assessed in quadruplicate.
(§2) The injection volume for each sample was 5 µL.

mouse (CD-1) plasma = experiment: Presaturation equilibrium dialysis, fraction unbound in CD-1 mouse plasma; format: in vitro ADME; set-up: fraction unbound at 18 h: dose or concentration left out as unconfirmed; settings: 5 μM PFAS, 18 h, 37 °C, value (CV)
Description: as §1, §2

mouse (C57BL/6) plasma = experiment: Presaturation equilibrium dialysis, fraction unbound in C57BL/6 mouse plasma; format: in vitro ADME; set-up: fraction unbound at 18 h: dose or concentration left out as unconfirmed; settings: 5 μM PFAS, 18 h, 37 °C, value (CV)
Description: as §1, §2

[1] = target: mouse serum albumin (MSA) (Mus musculus, UniProt P07724); experiment: Presaturation equilibrium dialysis, fraction unbound in mouse serum albumin solution; settings: for fraction unbound at 18 h, 5 µM: mouse
Description: (§3) The equilibrium dialysis device (EQD) HTD96 (Gales Ferry, CT, USA) was assembled according to manufacturer instructions. DPBS buffer solutions were prepared by adding PFAS with a concentration of either approximately five-fold of the estimated fu values based on initial available data or assumed to be 0.001 if no data was available. The dialysis apparatus and membranes assembled were pre-saturated (250 µL) three times in total with PFAS spiked DPBS buffer solution; twice for 1 h followed by a final 18-h pre-saturation. This same solution was used on the receiver side of the EQD. […] This 4% albumin was used in the albumin binding study to recapitulate plasma concentration, as human albumin concentration in plasma is 3.5–4.5 g/dL (530–680 µM). The matrix was diluted five-fold using DPBS for PFAS that had preliminary fu values lower than 0.01. Dimethylsulfoxide (DMSO) stock solutions of test PFAS were prepared at 500 μM and added to species-specific plasma or 4% albumin to a final concentration of 5 μM with 1% DMSO. Next, 150 μL of PFAS spiked DPBS was added to the receiver side of the membrane and 150 μL of compound spiked matrix was added to the donor side. […] Each PFAS:matrix combination was assessed in quadruplicate. For sample collection, 15 μL of buffer and 45 μL of matrix were sampled from the dialysis device into a 96-deep well plate and matrix-matched with either blank buffer or matrix. The samples were then quenched with 200 μL of cold acetonitrile containing internal standard (tolbutamide 30 nM and carbamazepine 12 nM) to precipitate proteins. Next, the plates were sealed and placed on a vortex mixer for 1 min, and then centrifuged (Beckman Coulter, Fullerton, CA, USA) at 3000 rpm for 5 min at room temperature. Lastly, the supernatant was transferred to a new 96-well plate, fully dried down under nitrogen gas, reconstituted with 200 µL of 50/50 (v/v) HPLC grade water/acetonitrile, and vortexed for 1 min prior to LC-MS/MS analysis.
(§4) LC-MS/MS analyses were performed on a SCIEX Triple Quad 5500 mass spectrometer (SCIEX, Concord, ON, Canada) equipped with Turbo Ion Spray interface. […] All instruments were controlled and synchronized by SCIEX Analyst software (version 1.6.3). Mobile phases compositions were 0.1% formic acid in water (mobile phase A) and 0.1% formic acid in acetonitrile (mobile phase B). […] The column was equilibrated at 5% B for 0.5 min before injecting samples. The total run time for each injection was 6 min. The chromatographic separation was conducted on a Phenomenex Kinetex C18 100Å 30 × 2.1 mm column (Torrance, CA, USA) with a flow rate of 0.5 mL/min. The injection volume for each sample was 5 µL. Multiple-reaction-monitoring (MRM) mode using specific precursor/product ion transitions was used for quantification. Data processing was performed using SCIEX Analyst software (version 1.6.3).
(§5) The calculations for fu are shown in Equations (1) and (2), where D is the dilution factor and fu,d is the diluted fu shown below. All calculations are based on area ratios (analyte peak area/IS peak area), and MS responses used for calculations were all in linear ranges. […] (1) Diluted fud=Receiver Area Ratio/Donor Area Ratio (2) Undiluted fu=1/D/1/fu,d−1+1/D
(§6) Albumin concentrations for rodents have been reported in the literature as rat: 3.0 g/dL; CD-1 mice: 2.7 g/dL; C57BL/6 mice: 2.9 g/dL [53].

rat plasma = system: rat plasma; set-up: method as in PMID 12499116; settings: ultrafiltration method; cited from earlier work
rat serum albumin (RSA) = rat serum albumin (RSA) (Rattus norvegicus, UniProt P02770); experiment: Presaturation equilibrium dialysis, fraction unbound in rat serum albumin solution; settings: for fraction unbound at 18 h, 5 µM: rat
Description: as §3, §4, §5, §6

rat (Wistar-Han) plasma = experiment: Presaturation equilibrium dialysis, fraction unbound in rat plasma; format: in vitro ADME; set-up: fraction unbound at 18 h: dose or concentration left out as unconfirmed; settings: 5 μM PFAS, 18 h, 37 °C, value (CV)
Description: as §1, §2

[2] = target: T1, human serum albumin (HSA) (Homo sapiens, UniProt P02768); experiment: Presaturation equilibrium dialysis, fraction unbound in human serum albumin solution; format: in vitro ADME; settings: 4% human serum albumin in PBS, value (CV)
T1 construct: purchased Sigma-Aldrich
Description: as §1, §2

[3] = Presaturation equilibrium dialysis, fraction unbound in human plasma; format: in vitro ADME; set-up: fraction unbound at 18 h: dose or concentration left out as unconfirmed; settings: human, 37 °C, value (CV), read-out: Fraction Unbound (fu) and Coefficient of Variance (CV), Human Plasma
Description: as §1, §2

[4] = Presaturation equilibrium dialysis, fraction unbound in CD-1 mouse plasma; format: in vitro ADME; set-up: fraction unbound at 18 h: dose or concentration left out as unconfirmed; settings: 37 °C, value (CV), read-out: Fraction Unbound (fu) and Coefficient of Variance (CV), CD-1 Plasma
Description: as §1, §2

[5] = Presaturation equilibrium dialysis, fraction unbound in C57BL/6 mouse plasma; format: in vitro ADME; set-up: fraction unbound at 18 h: dose or concentration left out as unconfirmed; settings: 37 °C, value (CV), read-out: Fraction Unbound (fu) and Coefficient of Variance (CV), C57BL/6 Plasma
Description: as §1, §2

[6] = humans; cited from earlier work
[7] = Presaturation equilibrium dialysis, fraction unbound in rat plasma; format: in vitro ADME; set-up: fraction unbound at 18 h: dose or concentration left out as unconfirmed; settings: Wistar-Han rat plasma, 37 °C, value (CV), read-out: Fraction Unbound (fu) and Coefficient of Variance (CV), Rat Plasma
Description: as §1, §2

[8] = 3% mouse serum albumin, value (%CV)
[9] = 4% mouse serum albumin in PBS, 5 μM PFAS, value (CV)
[10] = 3% rat serum albumin, value (%CV)
[11] = 4% rat serum albumin in PBS, 5 μM PFAS, value (CV)
[12] = 4% mouse serum albumin (MSA) solution, Fraction Unbound (fu) and Coefficient of Variance (CV), MSA, 4% mouse serum albumin in PBS, 5 μM PFAS, value (CV)
[13] = isolated protein, Fraction unbound (fu) and %CV, MSA 3%, 3% mouse serum albumin, value (%CV)
[14] = 4% rat serum albumin (RSA) solution, Fraction Unbound (fu) and Coefficient of Variance (CV), RSA, 4% rat serum albumin in PBS, 5 μM PFAS, value (CV)
[15] = isolated protein, Fraction unbound (fu) and %CV, RSA 3%, 3% rat serum albumin, value (%CV)

Chain of rat serum albumin (RSA) (P02770 25-608): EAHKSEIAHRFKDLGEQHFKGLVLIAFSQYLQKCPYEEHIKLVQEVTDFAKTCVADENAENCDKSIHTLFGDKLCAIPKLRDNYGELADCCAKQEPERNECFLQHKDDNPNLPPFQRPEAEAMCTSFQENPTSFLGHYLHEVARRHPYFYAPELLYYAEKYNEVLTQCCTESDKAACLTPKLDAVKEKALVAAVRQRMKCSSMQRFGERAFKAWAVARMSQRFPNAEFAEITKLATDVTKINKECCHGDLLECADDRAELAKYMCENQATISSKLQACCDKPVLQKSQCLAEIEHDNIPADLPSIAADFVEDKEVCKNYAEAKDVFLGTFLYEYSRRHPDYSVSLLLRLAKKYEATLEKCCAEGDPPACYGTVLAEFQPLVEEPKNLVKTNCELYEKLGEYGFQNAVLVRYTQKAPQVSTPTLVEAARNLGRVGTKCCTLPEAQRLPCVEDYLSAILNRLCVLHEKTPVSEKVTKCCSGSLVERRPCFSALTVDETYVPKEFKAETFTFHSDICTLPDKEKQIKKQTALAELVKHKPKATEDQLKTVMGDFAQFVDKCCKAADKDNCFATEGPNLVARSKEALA
Chain of mouse serum albumin (MSA) (P07724 25-608): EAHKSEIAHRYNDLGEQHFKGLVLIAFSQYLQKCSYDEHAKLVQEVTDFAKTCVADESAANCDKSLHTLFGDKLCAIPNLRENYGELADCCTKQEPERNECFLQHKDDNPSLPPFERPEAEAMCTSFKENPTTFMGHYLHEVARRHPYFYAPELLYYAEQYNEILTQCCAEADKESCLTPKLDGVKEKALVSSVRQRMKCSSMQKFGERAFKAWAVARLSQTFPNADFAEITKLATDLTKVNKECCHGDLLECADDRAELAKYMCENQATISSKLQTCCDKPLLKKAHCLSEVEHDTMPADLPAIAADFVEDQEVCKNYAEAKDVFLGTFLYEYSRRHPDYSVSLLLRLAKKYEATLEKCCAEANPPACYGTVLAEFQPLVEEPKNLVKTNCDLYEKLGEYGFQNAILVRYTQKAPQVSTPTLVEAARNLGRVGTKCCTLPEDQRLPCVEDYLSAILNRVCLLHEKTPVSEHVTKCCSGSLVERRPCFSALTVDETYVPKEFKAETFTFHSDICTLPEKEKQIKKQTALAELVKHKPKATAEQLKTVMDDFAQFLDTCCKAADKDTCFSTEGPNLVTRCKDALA
T1 sequence (P02768 25-609): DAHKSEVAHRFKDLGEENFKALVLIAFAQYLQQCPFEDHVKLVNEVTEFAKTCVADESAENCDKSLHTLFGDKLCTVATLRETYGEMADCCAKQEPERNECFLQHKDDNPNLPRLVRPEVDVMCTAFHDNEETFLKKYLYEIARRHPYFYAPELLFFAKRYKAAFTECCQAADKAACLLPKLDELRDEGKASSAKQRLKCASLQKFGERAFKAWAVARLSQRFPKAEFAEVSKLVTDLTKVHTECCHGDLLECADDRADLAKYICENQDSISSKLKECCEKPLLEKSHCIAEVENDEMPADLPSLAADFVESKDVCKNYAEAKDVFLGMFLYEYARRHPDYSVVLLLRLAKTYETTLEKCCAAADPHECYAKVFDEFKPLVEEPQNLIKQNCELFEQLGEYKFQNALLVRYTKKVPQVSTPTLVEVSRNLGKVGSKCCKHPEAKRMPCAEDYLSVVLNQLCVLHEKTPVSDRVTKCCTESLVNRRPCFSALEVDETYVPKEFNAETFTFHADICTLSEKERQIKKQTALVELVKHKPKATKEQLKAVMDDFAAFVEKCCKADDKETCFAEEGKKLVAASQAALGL

Compound	Fraction Unbound (fu) and Coefficient of Variance (CV), Human Plasma (human plasma)	Fraction Unbound (fu) and Coefficient of Variance (CV), CD-1 Plasma (mouse (CD-1) plasma)	Fraction Unbound (fu) and Coefficient of Variance (CV), C57BL/6 Plasma (mouse (C57BL/6) plasma)	Fraction unbound (fu) and %CV, MSA 3% [1, 8]	Fraction Unbound (fu) and Coefficient of Variance (CV), MSA [1, 9]	bound (rat plasma)	Fraction unbound (fu) and %CV, RSA 3% (rat serum albumin (RSA); [10])	Fraction Unbound (fu) and Coefficient of Variance (CV), RSA (rat serum albumin (RSA); [11])	Fraction Unbound (fu) and Coefficient of Variance (CV), Rat Plasma (rat (Wistar-Han) plasma)	fraction unbound at 18 h, 5 µM [1, 12]	fraction unbound at 18 h, 5 µM [1, 13]	fraction unbound at 18 h, 5 µM (rat serum albumin (RSA); [14])	fraction unbound at 18 h, 5 µM (rat serum albumin (RSA); [15])	fraction unbound at 18 h [4]	fraction unbound at 18 h [5]	fraction unbound at 18 h [7]	further results
O=C(O)C(F)(F)C(F)(F)C(F)(F)C(F)(F)C(F)(F)C(F)(F)C(F)(F)C(F)(F)F [PFNA, perfluorononanoic acid]	0.00187(3%)	0.00455(6%)	0.00438(22%)	0.00292 (6%)	0.00364(6%)	greater than 98%	0.00217 (2%)	0.00271(2%)	0.0021(6%)	–	–	–	–	–	–	–	–
O=C(O)C(F)(F)C(F)(F)C(F)(F)C(F)(F)C(F)(F)C(F)(F)C(F)(F)C(F)(F)C(F)(F)F [PFDA, perfluorodecanoic acid]	0.000618(9%)	0.0015(4%)	0.00127(9%)	0.000839 (26%)	0.00102(26%)	greater than 98%	0.000494 (19%)	0.000608(19%)	0.001(9%)	–	–	–	–	–	–	–	Fraction Unbound (fu) and Coefficient of Variance (CV), HSA ([2]; 5 μM PFAS): 0.000584(8%)
O=C(O)C(F)(F)C(F)(F)C(F)(F)C(F)(F)C(F)(F)C(F)(F)C(F)(F)F [PFOA, perfluorooctanoic acid]	–	–	–	–	–	greater than 98%	–	–	–	0.00513	0.00411	0.00196	0.00157	–	–	–	fraction unbound at 18 h, 5 µM ([3]; 5 μM PFAS): 0.0025; fraction unbound at 18 h, 5 µM ([4]; 5 μM PFAS): 0.0152; fraction unbound at 18 h, 5 µM ([2]; 4% human serum albumin (HSA) solution, 5 μM PFAS, read-out: Fraction Unbound (fu) and Coefficient of Variance (CV), HSA): 0.00285; fraction unbound at 18 h, 5 µM ([5]; 5 μM PFAS): 0.0142; t1/2 [6]: 2.3–5.4 years; fraction unbound at 18 h, 5 µM ([7]; 5 μM PFAS): 0.00298
NS(=O)(=O)C(F)(F)C(F)(F)C(F)(F)C(F)(F)C(F)(F)C(F)(F)C(F)(F)C(F)(F)F [PFOSA, perfluorooctanesulfonamide]	–	–	–	–	–	–	–	–	–	0.00127	0.00102	0.00118	0.000952	0.00326	0.0023	0.00197	fraction unbound at 18 h [3]: 0.0019; fraction unbound at 18 h ([2]; 4% human serum albumin (HSA) solution, read-out: Fraction Unbound (fu) and Coefficient of Variance (CV), HSA): 0.00152
O=C(O)C(F)(F)C(F)(F)C(F)(F)C(F)(F)C(F)(F)C(F)(F)F [PFHpA, perfluoroheptanoic acid]	–	–	–	–	–	greater than 98%	–	–	–	–	0.00954	–	0.00257	0.0331	0.0323	0.00454	fraction unbound at 18 h ([3]; plasma): 0.00445; fraction unbound at 18 h, 5 µM ([1]; isolated protein, Fraction Unbound (fu) and Coefficient of Variance (CV), MSA, 4% mouse serum albumin in PBS, 5 μM PFAS, value (CV)): 0.0118; fraction unbound at 18 h, 5 µM (rat serum albumin (RSA); isolated protein, Fraction Unbound (fu) and Coefficient of Variance (CV), RSA, 4% rat serum albumin in PBS, 5 μM PFAS, value (CV)): 0.00313
